We go through 13 compounds from PubChem BioAssay (NCI).

Common to all, as to assay: NCI tumour cell line growth inhibition, 48 h
The test system of assay [1] is HCC-2998 colon.
Assay [2] has as its system SW-620 colon.
Assay [3] has as its system OVCAR-5 ovarian.
The test system of assay [4] is U251 CNS.
For assay [5], the system named is COLO 205 colon.
The subject of assay [6] is SK-MEL-2 melanoma.
For assay [7], the system named is MDA-N.
Assay [8] concerns HCT-15 colon.
In assay [9] the test system is UO-31 renal.
The subject of assay [10] is RPMI-8226 leukemia.

Structures are written as SMILES.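 In this assay, cells in 96-well plates receive the compound at five concentrations for 48 hours. Endpoints are linearly interpolated between the surrounding concentrations. TGI: concentration producing complete growth inhibition.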

With `CC(C)Oc1cccc(N2C(CCc3c[nH]c4ccc(Br)cc34)=NS(=O)(=O)c3cnccc32)c1`, the TGI in [1] is more than 100 µM; in [2], more than 100 µM; in assay [3], more than 100 µM; in assay [4] it was more than 100 µM; in assay [5] it was 41.9 µM; in assay [6], more than 100 µM. Further, the TGI in assay [7], in assay [8], in assay [9] and in assay [10] was more than 100 µM each time.

On to `O=C(/C=C\c1ccccc1)Oc1ccc(/C=C2\CCC/C(=C\c3ccc(OC(=O)/C=C\c4ccccc4)cc3)C2=O)cc1`, for which the TGI in assay [1], in assay [2], in [3], in assay [4], in [5] and in [6] was more than 100 µM in each case. For the same compound, the TGI in assay [7], in assay [8], in [9] and in assay [10] was more than 100 µM each time.

As for `COc1ccc2oc(=O)c(-c3cc4c(c(C)n3)c(=O)oc3ccc(OC)cc34)cc2c1`, the TGI in [1], in [2], in [4], in assay [5], in assay [6] and in assay [7] was more than 100 µM each time. The TGI in [8], in assay [9] and in assay [10] was more than 100 µM each time.

In the case of `COc1cccc2c(=O)oc(-c3ccccc3C)nc12`, the TGI in assay [1] is more than 100 µM; in assay [2], more than 100 µM; in assay [3] it was more than 100 µM; in assay [4], more than 100 µM; in assay [5], more than 100 µM; in assay [6], 67.5 µM. Besides, the TGI is 39.1 µM in assay [7], more than 100 µM in [8], more than 100 µM in [9] and more than 100 µM in [10].

On to `COC(=O)Nc1cc(OCCCOC(C)=O)c2[nH]c(C(=O)OC)cc2c1C[C@H](O)CO`, for which the TGI in [1], in assay [2], in assay [3], in [4], in [5] and in assay [6] was more than 100 µM throughout. Besides, the TGI in assay [7], in assay [8], in [9] and in [10] was more than 100 µM each time.

For the compound `COc1ccc(O[C@H](CO)C[C@@H]2COC(C)(C)O2)cc1`, the TGI in assay [1], in [2], in assay [3], in [4], in [5] and in assay [6] was more than 100 µM each time. In addition, the TGI in assay [7], in assay [8], in assay [9] and in assay [10] was more than 100 µM in each case.

As to `O=c1c2ccc(Cl)cc2oc2c(CSc3ccccc3)cccc12`, the TGI is more than 100 µM in assay [1]; more than 31.6 µM in [2]; more than 100 µM in assay [3]; more than 100 µM in assay [4]; more than 100 µM in assay [5]; more than 100 µM in assay [6]. In addition, the TGI in assay [7] is more than 100 µM; in assay [8], more than 100 µM; in assay [9], more than 38.4 µM; in assay [10] it was 81.3 µM.

Consider `COc1cc2c(cc1OC)C1=C(C=O)c3ccc(OC)c(OC)c3C(O)N1CC2` (stereo not drawn), for which the TGI in [1] was 31.7 µM; in assay [2], more than 100 µM; in [3], more than 100 µM; in assay [4], 45.9 µM; in assay [5], 64.1 µM; in [6], 28.7 µM. Further, the TGI in assay [7] is more than 100 µM; in [8], more than 100 µM; in [9] it was more than 100 µM; in assay [10] it was 38.3 µM.

`CCCCCCCCCCCCOCC(COP(=O)(O)OCCN=[N+]=[N-])OC(=O)CCCCCCCCCCC` (stereo not drawn): the TGI in assay [1], in assay [2], in [3], in assay [4], in assay [5] and in assay [6] was more than 100 µM each time. For the same compound, the TGI in [7], in assay [8], in [9] and in assay [10] was more than 100 µM each time.

For `OCCN1CCN(c2nc(N3CCCC3)c3nc(Cl)c(NCc4ccccc4)nc3n2)CC1`, the TGI in assay [1] came out at 3.56 µM; in assay [2] it was 17.5 µM; in assay [3], 26.6 µM; in assay [4], 18.2 µM; in assay [5] it was 6.73 µM; in [6], 16.8 µM. Besides, the TGI stood at 8.47 µM in assay [7], 7.91 µM in assay [8], 11.5 µM in assay [9] and 8.35 µM in assay [10].

On to `Clc1[nH]nc2ccccc12`, for which the TGI in [1], in assay [2], in assay [3], in [4], in [5] and in [6] was more than 100 µM throughout. Also, the TGI in assay [7], in [8], in assay [9] and in assay [10] was more than 100 µM throughout.

As to `COc1cc2c(cc1O)C(Cc1ccc(OCc3ccccc3)c(OCc3ccccc3)c1)N(C(=O)NCCc1ccccc1)CC2` (stereo not drawn), the TGI in [1], in assay [2], in assay [3], in assay [4], in assay [5] and in [6] was more than 100 µM each time. The TGI in [7], in assay [8], in assay [9] and in [10] was more than 100 µM each time.

Take `CC(=O)O[C@H]1CC[C@@H](OC(C)=O)[C@H]2[C@H](O)[C@H](O)[C@@H]1n1c(=O)n(-c3ccccc3)c(=O)n12`: the TGI in [2], in [3], in [4], in assay [5], in assay [6] and in [7] was more than 100 µM throughout. For the same compound, the TGI in assay [8], in assay [9] and in [10] was more than 100 µM each time.
